Test system: F9A6-CD4 T cell hybridoma overlaid on M. tuberculosis-infected macrophages
Test: Ex vivo MTB Ag85B antigen presentation to CD4 T cells (IL-2 ELISA)
Format: cell-based, human
Conditions: concurrent activation; decrease for MO-TDM compared to TDM and MO
Experimental: Briefly, M. tuberculosis-infected MΦs were washed after a 4-hour infection and overlaid with the F9A6-CD4 T cell hybridoma which recognizes an Ag85B epitope in the context of human HLA-DR1. IL-2 secreted from hybridoma T cells or other cytokines secreted from M. tuberculosis-infected MΦs were determined using a sandwich ELISA kit (Biolegend).
By inhibiting the phagosome lysosome fusion in macrophages, TDM not only protects the M. tuberculosis bacilli from intracellular killing but also reduces the priming of T cells due to reduced processing of Mycobacterial antigens in lysosomal compartments. Since increased killing of intracellular MTB in macrophages was observed when they were stimulated with a cubosomal MO-TDM (1 mol %) preparation, it indicated a possible increase in lysosmal processing of its antigens. […] An in vitro antigen presentation assay using a CD4 hybridoma T cell that recognizes a specific epitope of Ag85B was adopted to determine the priming of T cells by macrophages that were stimulated with MO, TDM and MO-TDM (1 mol %). Secreted levels of IL-2 by hybridoma T cells upon overlay to M. tuberculosis infected macrophages with and without stimulation with MO, TDM and MO-TDM (1 mol %) were monitored in a time dependent manner (FIG. 9).

For trehalose 6,6′ dimycolate [TDM], the “antigen presentation to T cells (secreted IL-2 levels), change from day 3 to day 5 post infection” value was “decreased sharply”.

Reference: US20250339517A1, “LIPID N[…]” (priority 2022, published 2025)
